Columns and labels:
[1] = biological target: T1, human recombinant TRPV1 (Homo sapiens (Human), UniProt Q8NER1); assay: TRPV1 Capsaicin-Based Assay (Protocol 2, TRPV1/CHO cells, Fluo-4, FLIPR); type: cell-based
Protocol: (§1) For Protocol 2, a Chinese Hamster Ovary cell line (CHO) that has been engineered to constitutively express human recombinant TRPV1 was used (TRPV1/CHO cells). The TRPV1/CHO cell line was generated as described below.
One day prior to assay, TRPV1/CHO cells were seeded in 96-well clear-bottom black plates (20,000 cells/well) in growth media. On the day of the experiment, the cells were washed with 0.2 mL 1× Hank's Balanced Salt Solution (Life Technologies) containing 1.6 mM CaCl2 and 20 mM HEPES, pH 7.4 (“wash buffer”). Subsequently, the cells were loaded by incubation in 0.1 mL of wash buffer containing Fluo-4 at 3 μM final concentration. After 1 hour, the cells were washed twice with 0.2 mL wash buffer and resuspended in 0.1 mL wash buffer. The plates were then transferred to a Fluorescence Imaging Plate Reader (Molecular Devices). Fluorescence intensity was monitored for 15 seconds to establish a baseline. Subsequently, test compounds diluted in assay buffer (1× Hank's Balanced Salt Solution containing 1 mM CaCl2 and 20 mM HEPES, pH 7.4) containing 1% DMSO were added to the cell plate and fluorescence was monitored for 2 minutes. […] Human TRPV1 was then activated by the addition of 50 μL capsaicin (100 nM final concentration) and plates incubated for an additional 3 min. Data were collected over the entire time course and analyzed using Excel and the curve-fitting formula GraphPad Prism.

[2] = biological target: T1, human recombinant TRPV1; assay: TRPV1 pH-Based Assay (Protocol 2, Ca2+ response in TRPV1/CHO cells, Fura-2); type: cell-based
Protocol: as §1
TRPV1/CHO cells were seeded in the 96-well clear-bottom black-wall plate (Nunc) at densities of 1-2×10^4 cells/well and grown in 100 μL of culture medium (alpha-MEM supplemented with 10% FBS, 20 mM HEPES, 1 mg/mL geneticin and 1% antibiotic-antimycotic mixed stock solution) for 1-2 days before the experiment.
(2) The 96-well plate was incubated at 37° C. for 45 min.
(3) The loading buffer was removed from each well. […] The wells were then refilled with 80 μL of measuring buffer.
(4) After an incubation at 4° C. for 15 min, the 96-well plate was transferred to FDSS-3000 (Hamamatsu Photonics, Japan).
(5) The Fura-2 fluorescent intensity was monitored at a wavelength of 340 nm and at 380 nm, respectively, at a rate of 0.5 Hz for a total of 240 seconds. After 16 time points (32 sec) of baseline detection, 20 μL of agonist solution was added to each well. The final volume was 100 μL/well.
(6) Fluorescence intensity ratio refers to the fluorescence intensity at 340 nm over the fluorescence intensity at 380 nm at a particular time point. The baseline was set as the average of the fluorescent intensity ratios for the first 16 time points before the addition of agonist solution. The maximum response was the highest fluorescent intensity ratio during the 60 time points following addition of agonist solution.
(7) Maximal signal ratios from each well were calculated as output data using the FDSS-3000 analysis program. Data were analyzed using Excel (Microsoft) and XLfit (idbs) software.
Two different agonist solutions with different H2SO4 concentrations were used for the pH assay (FIG. 3A). For one half of a 96-well plate one agonist solution was used, for the other half the other agonist solution. The agonist solutions were obtained by diluting sulfuric acid (H2SO4, 1M) with measuring buffer. The concentrations for the two agonist solutions were determined as described above in Section 2 of Protocol 2.
The sulfuric acid concentrations between the two agonist solutions differed by 0.5 mM. […] After 1:4 dilution of the agonist solutions, the final sulfuric acid concentration was 3.2 mM and 3.3 mM, respectively. The resulting pH value for the pH assay was 5.0 to 5.1.
Test compounds were dissolved in DMSO to yield 1 mM stock solutions. […] The thereby-obtained solutions were further diluted in measuring buffer (1:100) as 10× stock serial dilutions with a DMSO concentration of 1%. 10 μL of a 10× stock was added into each well at step 3.3.(4) of Protocol 2.
Steps (1) and (2) of this Assay were the same as steps 2.2.(1) and 2.2.(2) of Protocol 2, respectively.
(3) The cells were washed twice with 150 μL of measuring buffer (mentioned in 2.2.(3) of Protocol 2, no probenecid). The wells were subsequently refilled with 70 μL of measuring buffer.
(4) Either 10 μl of measuring buffer or 10 μL of 10× stock serial dilution of test compound (described in 3.2. above) were applied to each well. Usually, only one test compound was tested per 96-well plate. The number of replicates per 96-well plate for a particular antagonist at a particular concentration was 7×2 since two different sulfuric acid concentrations were used per 96-well plate (N=7×2) (FIG. 3).
Step (5) was the same as 2.2.(4) above.
(6) Fura-2 fluorescent intensity was monitored as described in 2.2.(5) above. After 16 time points of baseline detection, 20 μL of agonist solution (measuring buffer titrated with H2SO4 to yield pH 5.0-5.1 when mixed 1:4 with the measuring buffer containing test compound) was added to each well (final volume 100 μL/well).
Steps (7) and (8) were as described in 2.2.(6) and 2.2.(7) above, respectively.
(1) The pH values of the buffer in the wells of A1→H1 and A7→H7 (longitudinally; FIG. 3) were measured one by one using a portable pH meter.

[3] = TRPV1/CHO cells, capsaicin 100 nM final, read-out: IC50 value by the Capsaicin-Based Assay
[4] = TRPV1/CHO cells, pH 5.0-5.1, read-out: IC50 value by the pH-Based Assay

T1 sequence (Q8NER1 whole entry): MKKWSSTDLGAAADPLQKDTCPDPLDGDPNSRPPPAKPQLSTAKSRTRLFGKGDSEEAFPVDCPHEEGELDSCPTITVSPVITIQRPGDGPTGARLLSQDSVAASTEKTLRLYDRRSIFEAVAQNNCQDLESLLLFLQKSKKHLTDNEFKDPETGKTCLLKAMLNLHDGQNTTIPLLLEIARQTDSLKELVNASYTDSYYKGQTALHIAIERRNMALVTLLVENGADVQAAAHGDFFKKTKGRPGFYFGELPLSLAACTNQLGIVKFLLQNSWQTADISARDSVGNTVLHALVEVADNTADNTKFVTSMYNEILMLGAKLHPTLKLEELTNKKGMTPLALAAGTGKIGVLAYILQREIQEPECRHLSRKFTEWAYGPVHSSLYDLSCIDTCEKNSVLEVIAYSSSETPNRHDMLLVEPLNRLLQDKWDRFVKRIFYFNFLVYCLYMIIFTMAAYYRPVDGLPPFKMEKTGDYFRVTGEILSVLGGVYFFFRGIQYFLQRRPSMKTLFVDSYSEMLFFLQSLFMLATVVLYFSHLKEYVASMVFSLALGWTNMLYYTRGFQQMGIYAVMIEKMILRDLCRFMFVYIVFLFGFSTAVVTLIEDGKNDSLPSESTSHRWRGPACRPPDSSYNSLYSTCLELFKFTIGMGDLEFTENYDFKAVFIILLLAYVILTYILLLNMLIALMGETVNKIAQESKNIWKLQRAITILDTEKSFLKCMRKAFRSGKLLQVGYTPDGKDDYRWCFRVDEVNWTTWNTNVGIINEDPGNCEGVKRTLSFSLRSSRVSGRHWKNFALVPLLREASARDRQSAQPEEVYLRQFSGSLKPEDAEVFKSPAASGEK

| SMILES | IC50 [1, 3] [nM] | IC50 [2, 4] [nM] | IC50 [1] [nM] | IC50 [2] [nM] |
| --- | --- | --- | --- | --- |
| Cc1cc(NC(=O)N2CCC(F)(c3ncc(C[C@@H](O)CO)cc3Cl)CC2)ccc1C(F)(F)F [ACI, (R)-4-(3-Chloro-5-(2,3-dihydroxypropyl)pyridin-2-yl)-4-fluoro-N-(3-methyl-4-(trifluoromethyl)phenyl)piperidine-1-carboxamide] | ≤ 50 | ≤ 50 |  |  |
| Cc1cc(NC(=O)N2CCC(F)(c3ncc(C[C@H](O)CO)cc3Cl)CC2)ccc1OC(F)(F)F [ACT, (S)-4-(3-Chloro-5-(2,3-dihydroxypropyl)pyridin-2-yl)-4-fluoro-N-(3-methyl-4-(trifluoromethoxy)phenyl)piperidine-1-carboxamide] | ≤ 50 | ≤ 50 |  |  |
| Cc1cc(NC(=O)N2CCC(F)(c3ncc(C[C@@H](O)CO)cc3C)CC2)ccc1OC(F)(F)F [ACF, (R)-4-(5-(2,3-dihydroxypropyl)-3-methylpyridin-2-yl)-4-fluoro-N-(3-methyl-4-(trifluoromethoxy)phenyl)piperidine-1-carboxamide] | ≤ 50 | ≤ 50 |  |  |
| O=C(Nc1nc2cc(F)c(F)cc2s1)N1CCN(c2ncc(C[C@H](O)CO)cc2F)CC1 [AFB] |  |  | ≤ 50 | ≤ 50 |
| Cc1cc(NC(=O)N2CCC(F)(c3ncc(C[C@@H](O)CO)cc3C)CC2)ccc1C(F)(F)F [ACE, (R)-4-(5-(2,3-dihydroxypropyl)-3-methylpyridin-2-yl)-4-fluoro-N-(3-methyl-4-(trifluoromethyl)phenyl)piperidine-1-carboxamide] | ≤ 50 | ≤ 50 |  |  |
| C[C@H]1CN(C(=O)Nc2nc3ccc(Cl)cc3s2)CCN1c1ncc(C[C@H](O)CO)cc1F [AGK] | ≤ 50 | ≤ 50 |  |  |
| Cc1ccc2nc(NC(=O)N3CCN(c4ncc(C[C@H](O)CO)cc4Cl)C[C@@H]3C)sc2c1 [AEC] | ≤ 50 | ≤ 50 |  |  |
| Cc1ccc2nc(NC(=O)N3CCN(c4ncc(C[C@@H](O)CO)cc4Cl)C[C@@H]3C)sc2c1 [ADZ] | ≤ 50 | ≤ 50 |  |  |
| C[C@H]1CN(C(=O)Nc2nc3cc(F)c(F)cc3s2)CCN1c1ncc(C[C@@H](O)CO)cc1F [AFS] | ≤ 50 | ≤ 50 |  |  |
| Cc1cc(NC(=O)N2CCC(F)(c3ncc(C[C@H](O)CO)cc3C)CC2)ccc1C(F)(F)F [ACN, (S)-4-(5-(2,3-dihydroxypropyl)-3-methylpyridin-2-yl)-4-fluoro-N-(3-methyl-4-(trifluoromethyl)phenyl)piperidine-1-carboxamide] | ≤ 50 | ≤ 50 |  |  |
| Cc1cc2nc(NC(=O)N3CCN(c4ncc(C[C@@H](O)CO)cc4Cl)CC3)sc2cc1C [AEH] | ≤ 50 | ≤ 50 |  |  |
| Cc1cc(NC(=O)N2CCC(F)(c3ncc(C[C@@H](O)CO)cc3Cl)CC2)ccc1OC(F)(F)F [ACJ, (R)-4-(3-Chloro-5-(2,3-dihydroxypropyl)pyridin-2-yl)-4-fluoro-N-(3-methyl-4-(trifluoromethoxy)phenyl)piperidine-1-carboxamide] | ≤ 50 | ≤ 50 |  |  |
| Cc1cc(NC(=O)N2CCC(F)(c3ncc(C[C@H](O)CO)cc3C)CC2)ccc1OC(F)(F)F [ACM, (S)-4-(5-(2,3-dihydroxypropyl)-3-methylpyridin-2-yl)-4-fluoro-N-(3-methyl-4-(trifluoromethoxy)phenyl)piperidine-1-carboxamide] | ≤ 50 | ≤ 50 |  |  |
| Cc1cc(NC(=O)N2CCC(F)(c3ncc(C[C@@H](O)CO)cc3F)CC2)ccc1C(F)(F)F [ACO, (R)-4-(5-(2,3-dihydroxypropyl)-3-fluoropyridin-2-yl)-4-fluoro-N-(3-methyl-4-(trifluoromethyl)phenyl)piperidine-1-carboxamide] | ≤ 50 | ≤ 50 |  |  |
| Cc1cc(NC(=O)N2CC=C(c3ncc(C[C@@H](O)CO)cc3Cl)CC2)ccc1OC(F)(F)F [AAS, (R)-4-(3-Chloro-5-(2,3-dihydroxypropyl)pyridin-2-yl)-N-(3-methyl-4-(trifluoromethoxy)phenyl)-5,6-dihydropyridine-1(2H)-carboxamide] | ≤ 50 | ≤ 50 |  |  |
| Cc1cc(NC(=O)N2CCC(F)(c3ncc(C[C@H](O)CO)cc3Cl)CC2)ccc1C(F)(F)F [ACS, (S)-4-(3-Chloro-5-(2,3-dihydroxypropyl)pyridin-2-yl)-4-fluoro-N-(3-methyl-4-(trifluoromethyl)phenyl)piperidine-1-carboxamide] | ≤ 50 | ≤ 50 |  |  |

Continued, in another order:

| IC50 [1, 3] [nM] | IC50 [2, 4] [nM] | SMILES | IC50 [1] [nM] | IC50 [2] [nM] |
| --- | --- | --- | --- | --- |
| ≤ 50 | ≤ 50 | C[C@H]1CN(c2ncc(C[C@H](O)CO)cc2Cl)CCN1C(=O)Nc1nc2ccc(F)cc2s1 [AEB] |  |  |
| ≤ 50 | ≤ 50 | C[C@H]1CN(c2ncc(C[C@H](O)CO)cc2F)CCN1C(=O)Nc1nc2ccc(Cl)cc2s1 [AEN] |  |  |
| ≤ 50 | ≤ 50 | C[C@H]1CN(c2ncc(C[C@@H](O)CO)cc2F)CCN1C(=O)Nc1nc2ccc(Cl)cc2s1 [AEK] |  |  |
| ≤ 50 | ≤ 50 | C[C@H]1CN(c2ncc(C[C@@H](O)CO)cc2F)CCN1C(=O)Nc1nc2cc(F)c(F)cc2s1 [AEY] |  |  |
| ≤ 50 | ≤ 50 | CC1(C)CN(c2ncc(C[C@@H](O)CO)cc2F)CCN1C(=O)Nc1nc2ccc(F)cc2s1 [AFZ] |  |  |
| ≤ 50 | ≤ 50 | C[C@@H]1CN(c2ncc(C[C@H](O)CO)cc2F)CCN1C(=O)Nc1nc2ccc(F)cc2s1 [AGZ] |  |  |
| ≤ 50 | ≤ 50 | Cc1ccc2nc(NC(=O)N3CCN(c4ncc(C[C@H](O)CO)cc4F)C[C@@H]3C)sc2c1 [AEP] |  |  |
| ≤ 50 | ≤ 50 | C[C@@H]1CN(c2ncc(C[C@@H](O)CO)cc2F)CCN1C(=O)Nc1nc2ccc(F)cc2s1 [ADH, (R)-4-(5-[(R)-2,3-dihydroxypropyl)-3-fluoropyridin-2-yl)-N-(6-fluorobenzo[d]thiazol-2-yl]-2-methylpiperazine-1-carboxamide] |  |  |
